Test results: patent publication US20250281453A1, “COMBINATION THERAPIES COMPRISING QTX125” (QUIMATRYX, S.L., priority 2022, published 2025)

Tests used:
[1] = Genotoxicity (clastogenicity, aneugenicity); conditions: unlike other histone deacetylase inhibitors
[2] = system: Panc-1 pancreatic cancer cells; assay: QTX125-containing combination therapy, hexosaminidase cell viability; format: cell-based; conditions: for EC50: Homo sapiens, PANC-1, Panc-1; for combination index (C.I): Panc-1
Description: (§1) To assess the oncolytic efficacy of QTX125-containing combination therapies in vitro, colonic, pancreatic, hepatic and ovarian tumour cells were administered sorafenib, gemcitabine or bortezomib at EC25, EC50 and EC75 doses. QTX125 was co-administered in order to produce a dose response curve.
(§2) To prepare cells for viability assays, cells were transferred into 96 well tissue culture plates (Cultek), and resuspended in 100 µL at the following densities: 10,000 cells/well (Hep-G2 and MiaPaCa-2), 5000 cells/well (Panc-1 and SK-OV-3) or 3000 cells/well (HCT-116). Following 24 hours of incubation, media was removed and replaced with 100 µL media spiked with QTX125 and the test chemotherapeutic agents. Stock solutions for the agents used in this study are shown below in Table 1. Cells were incubated for a further 72 hours before cell viability was assessed using both ALAMAR® and hexosaminidase assays.
(§3) For the hexosaminidase assay, media containing QTX125 and the test chemotherapeutic agents was removed, and cells were washed once with PBS. 60 μL of substrate solution (containing: 7.5 mM p-nitrophenol-N-acetyl-beta-D-glucosamide [Sigma N-9376], 0.1 M sodium citrate, pH 5.0 and 0.25% Triton X-100) was added to each well and cells were incubated at 37° C. for at least 1 hour. Incubating cells in this manner causes the substrate solution to become bright yellow, at which point 90 μL of developer solution (containing 50 mM Glycine pH 10.4 and 5 mM EDTA) was added to each well. Absorbance at 410 nm was recorded using a plate reader.
(§4) Control values were normalised to 100% and percentage (%) viability was calculated. Data were used to plot log dose-response curves using a sigmoid dose-response (variable slope) equation. EC50 values were obtained using Equation 1, where ‘X’ is the logarithmic concentration; ‘Y’ is the response output and it is assumed that Y starts at bottom of the graph and reaches the top with an overall sigmoid shape.
(§5) Cls were obtained using Equation 2, where (Dm) 1 is the ECx concentration of QTX125 and (D) 1 is the ECx concentration of QTX125 in the presence of sorafenib, gemcitabine or bortezomib.
(§6) In order to assess the oncolytic efficacy of QTX125-containing combination therapies, monotherapy EC25, EC50 and EC75 doses for sorafenib, gemcitabine and bortezomib were calculated (as per Experiment 3) and administered to wells at these fixed concentrations. QTX125 was co-administered at a range of concentrations, in order to plot a dose-response curve such that the EC50 dose of QTX125 could be calculated in the presence of sorafenib/gemcitabine/bortezomib. QTX125 was administered to cells at a starting high-dose, and a 1:1 dilution was completed thereafter. In this part of the study, only the hexosaminidase assay was employed to assess cell viability following treatment with QTX125-containing combination therapies.
(§7) It should be noted that it was not possible to determine the appropriate concentrations for gemcitabine in all cell lines tested. In cells resistant to gemcitabine, nominal concentrations were used in place of EC25, EC50 and EC75 doses (e.g., nominal doses of 1, 10 and 100 µM were used in Panc-1 and Hep-G2 cells).

[3] = system: SK-OV-3 ovarian cancer cells; assay: as above; format: cell-based; conditions: for EC50: Homo sapiens, SK-OV-3, SK-Ov-3; for combination index (C.I): SK-Ov-3
Description: as §1, §2, §3, §4, §5, §6, §7

[4] = system: Hep-G2 hepatic cancer cells; assay: as above; format: cell-based; conditions: for combination index (C.I): Hep-G2; for EC50: Homo sapiens, HepG2, Hep-G2
Description: as §1, §2, §3, §4, §5, §6, §7

[5] = system: MiaPaCa-2 pancreatic cancer cells; assay: as above; format: cell-based; conditions: for EC50: Homo sapiens, MIA PaCa-2, MiaPaCa-2; for combination index (C.I.): MiaPaCa-2
Description: as §1, §2, §3, §4, §5, §6, §7

[6] = system: mantle cell lymphoma, lung cancer and pancreatic cancer xenografts; conditions: lung cancer and pancreatic cancer xenograft murine models; cited from earlier work
[7] = + bortezomib at EC25 dose (0.007 μM)
[8] = + bortezomib at EC50 dose (0.009 μM)
[9] = + bortezomib at EC75 dose (0.015 μM)
[10] = + gemcitabine at EC25, nominal dose 1 μM
[11] = + gemcitabine at EC50, nominal dose 10 μM
[12] = + gemcitabine at EC75, nominal dose 100 μM
[13] = + sorafenib at EC25 dose (4.1 μM)
[14] = + sorafenib at EC50 dose (7.4 μM)
[15] = + sorafenib at EC75 dose (15 μM)
[16] = + bortezomib at EC25 dose (0.006 μM)
[17] = + bortezomib at EC50 dose (0.007 μM)
[18] = + bortezomib at EC75 dose (0.012 μM)
[19] = + gemcitabine at EC25 dose (0.1 μM)
[20] = + gemcitabine at EC50 dose (0.25 μM)
[21] = + gemcitabine at EC75 dose (0.5 μM)
[22] = + sorafenib at EC25 dose (9.1 μM)
[23] = + sorafenib at EC50 dose (12.7 μM)
[24] = + sorafenib at EC75 dose (21.6 μM)
[25] = + bortezomib at EC25 dose (0.014 μM)
[26] = + bortezomib at EC50 dose (0.016 μM)
[27] = + bortezomib at EC75 dose (0.026 μM)
[28] = + sorafenib at EC25 dose (0.9 μM)
[29] = + sorafenib at EC50 dose (2.5 μM)
[30] = + sorafenib at EC75 dose (6.4 μM)
[31] = + bortezomib at EC75 dose (0.014 μM)
[32] = + gemcitabine at EC25 dose (0.01 μM)
[33] = + gemcitabine at EC50 dose (0.1 μM)
[34] = + gemcitabine at EC75 dose (1 μM)
[35] = + sorafenib at EC25 dose (4.2 μM)
[36] = + sorafenib at EC50 dose (6.8 μM)
[37] = + sorafenib at EC75 dose (10.3 μM)

In the case of `O=C(NO)c1ccc(CNC(=O)c2[nH]c(-c3ccc(O)cc3)cc2-c2ccoc2)cc1` [QTX125, 3-(3-Furyl)-N-{4-[(hydroxyamino)carbonyl]benzyl}-5-(4-hydroxyphenyl)-1 Hpyrrole-2-carboxamide], the “genotoxicity, in particular clastogenicity or aneugenicity” value [1] is reported as “no evidence of genotoxicity”, the EC50 [2, 7] is reported as 5.03 µM and the EC50 [2, 8] is reported as 5.48 µM. For the same molecule, the EC50 [2, 9] was 1.46 µM, the EC50 [2, 10] was 4.11 µM and the EC50 [2, 11] was 2.47 µM. It also gave an EC50 [2, 12] of 1.94 µM, an EC50 [2, 13] of 13.7 µM and an EC50 [2, 14] of 14.3 µM. It also gave an EC50 [2, 15] of 2.98 µM, an EC50 ([2]; no second agent (control of Table 5.5.1)) of 10.2 µM and an EC50 ([2]; no second agent (control of Table 5.5.2)) of 14.7 µM. For the same molecule, the EC50 ([2]; no second agent (control of Table 5.5.3)) was 18.2 µM, the “combination index (C.I)” value [2, 7] was 0.3 arbitrary units and the “combination index (C.I)” value [2, 8] was 0.3 arbitrary units. For the same molecule, the “combination index (C.I)” value [2, 9] was 0.1 arbitrary units, the “combination index (C.I)” value [2, 10] was 0.3 arbitrary units and the “combination index (C.I)” value [2, 11] was 0.2 arbitrary units. For the same molecule, the “combination index (C.I)” value [2, 12] was 0.1 arbitrary units, the “combination index (C.I)” value [2, 13] was 1.3 arbitrary units and the “combination index (C.I)” value [2, 14] was 1.4 arbitrary units. For the same molecule, the “combination index (C.I)” value [2, 15] was 0.3 arbitrary units, the EC50 [3, 16] was 0.532 µM and the EC50 [3, 17] was 0.58 µM. The EC50 [3, 18] was 0.262 µM, the EC50 [3, 19] was 0.171 µM and the EC50 [3, 20] was 0.303 µM. It also gave an EC50 [3, 21] of 0.139 µM, an EC50 [3, 22] of 0.389 µM and an EC50 [3, 23] of 0.657 µM. It also gave an EC50 [3, 24] of 0.406 µM, an EC50 ([3]; no second agent (control of Table 5.4.1)) of 0.623 µM and an EC50 ([3]; no second agent (control of Table 5.4.2)) of 0.282 µM. For the same molecule, the EC50 ([3]; no second agent (control of Table 5.4.3)) was 0.633 µM, the “combination index (C.I)” value [3, 16] was 0.8 arbitrary units and the “combination index (C.I)” value [3, 17] was 0.9 arbitrary units. For the same molecule, the “combination index (C.I)” value [3, 18] was 0.4 arbitrary units, the “combination index (C.I)” value [3, 19] was 0.6 arbitrary units and the “combination index (C.I)” value [3, 20] was 1.1 arbitrary units. For the same molecule, the “combination index (C.I)” value [3, 21] was 0.5 arbitrary units, the “combination index (C.I)” value [3, 22] was 0.6 arbitrary units and the “combination index (C.I)” value [3, 23] was 1.1 arbitrary units. For the same molecule, the “combination index (C.I)” value [3, 24] was 0.7 arbitrary units, the “combination index (C.I)” value [4, 25] was 0.4 arbitrary units and the “combination index (C.I)” value [4, 26] was 0.2 arbitrary units. For the same molecule, the “combination index (C.I)” value [4, 27] was 0.2 arbitrary units, the “combination index (C.I)” value [4, 10] was 0.6 arbitrary units and the “combination index (C.I)” value [4, 11] was 0.2 arbitrary units. The “combination index (C.I)” value [4, 12] was 0.05 arbitrary units, the “combination index (C.I)” value [4, 28] was 0.5 arbitrary units and the “combination index (C.I)” value [4, 29] was 0.4 arbitrary units. The “combination index (C.I)” value [4, 30] was 0.5 arbitrary units, the EC50 [4, 25] was 0.237 µM and the EC50 [4, 26] was 0.128 µM. It also gave an EC50 [4, 27] of 0.091 µM, an EC50 [4, 10] of 0.744 µM and an EC50 [4, 11] of 0.198 µM. It also gave an EC50 [4, 12] of 0.0561 µM, an EC50 [4, 28] of 0.0879 µM and an EC50 [4, 29] of 0.0749 µM. It also gave an EC50 [4, 30] of 0.0872 µM, an EC50 ([4]; no second agent (control of Table 5.3.1)) of 0.189 µM and an EC50 ([4]; no second agent (control of Table 5.3.2)) of 1.2 µM. For the same molecule, the EC50 ([4]; no second agent (control of Table 5.3.3)) was 0.544 µM, the EC50 [5, 7] was 0.239 µM and the EC50 [5, 8] was 0.239 µM. It also gave an EC50 [5, 31] of 0.246 µM, an EC50 [5, 32] of 0.133 µM and an EC50 [5, 33] of 0.112 µM. For the same molecule, the EC50 [5, 34] was 0.0456 µM, the EC50 [5, 35] was 0.258 µM and the EC50 [5, 36] was 0.279 µM. For the same molecule, the EC50 [5, 37] was 0.26 µM, the EC50 ([5]; no second agent (control of Table 5.2.1)) was 0.214 µM and the EC50 ([5]; no second agent (control of Table 5.2.2)) was 0.146 µM. For the same molecule, the EC50 ([5]; no second agent (control of Table 5.2.3)) was 0.23 µM, the “combination index (C.I.)” value [5, 7] was 1.0 arbitrary units and the “combination index (C.I.)” value [5, 8] was 1.0 arbitrary units. The “combination index (C.I.)” value [5, 31] was 1.1 arbitrary units, the “combination index (C.I.)” value [5, 32] was 0.9 arbitrary units and the “combination index (C.I.)” value [5, 33] was 0.8 arbitrary units. The “combination index (C.I.)” value [5, 34] was 0.3 arbitrary units, the “combination index (C.I.)” value [5, 35] was 1.2 arbitrary units and the “combination index (C.I.)” value [5, 36] was 1.3 arbitrary units. The “combination index (C.I.)” value [5, 37] was 1.2 arbitrary units and the antitumoral efficacy [6] was “high antitumoral efficacy”.
